Measurements as given in US20220213060A1, “Crystal Form of Quinazolinone Compound and Preparation Method Therefor” (Luoxin Healthcare Science and Technology Development …, priority 2019, published 2022).

What was measured:
RAW264.7 = experiment: Akt phosphorylation inhibition in RAW264.7 cells (high expression of PI3Kγ); format: cell-based; conditions: RAW264.7 cell line with high expression of PI3Kγ
PI3Kδ = target: T1, PI3Kδ (Homo sapiens, UniProt O00329); experiment: In vitro enzymatic activity test (ADP-Glo lipid kinase), PI3Kδ; format: biochemical; conditions: inhibitory activity against PI3Kα relative to PI3Kδ
T1 construct: purchased Millipore 14-604-K
T1 sequence (O00329 whole entry): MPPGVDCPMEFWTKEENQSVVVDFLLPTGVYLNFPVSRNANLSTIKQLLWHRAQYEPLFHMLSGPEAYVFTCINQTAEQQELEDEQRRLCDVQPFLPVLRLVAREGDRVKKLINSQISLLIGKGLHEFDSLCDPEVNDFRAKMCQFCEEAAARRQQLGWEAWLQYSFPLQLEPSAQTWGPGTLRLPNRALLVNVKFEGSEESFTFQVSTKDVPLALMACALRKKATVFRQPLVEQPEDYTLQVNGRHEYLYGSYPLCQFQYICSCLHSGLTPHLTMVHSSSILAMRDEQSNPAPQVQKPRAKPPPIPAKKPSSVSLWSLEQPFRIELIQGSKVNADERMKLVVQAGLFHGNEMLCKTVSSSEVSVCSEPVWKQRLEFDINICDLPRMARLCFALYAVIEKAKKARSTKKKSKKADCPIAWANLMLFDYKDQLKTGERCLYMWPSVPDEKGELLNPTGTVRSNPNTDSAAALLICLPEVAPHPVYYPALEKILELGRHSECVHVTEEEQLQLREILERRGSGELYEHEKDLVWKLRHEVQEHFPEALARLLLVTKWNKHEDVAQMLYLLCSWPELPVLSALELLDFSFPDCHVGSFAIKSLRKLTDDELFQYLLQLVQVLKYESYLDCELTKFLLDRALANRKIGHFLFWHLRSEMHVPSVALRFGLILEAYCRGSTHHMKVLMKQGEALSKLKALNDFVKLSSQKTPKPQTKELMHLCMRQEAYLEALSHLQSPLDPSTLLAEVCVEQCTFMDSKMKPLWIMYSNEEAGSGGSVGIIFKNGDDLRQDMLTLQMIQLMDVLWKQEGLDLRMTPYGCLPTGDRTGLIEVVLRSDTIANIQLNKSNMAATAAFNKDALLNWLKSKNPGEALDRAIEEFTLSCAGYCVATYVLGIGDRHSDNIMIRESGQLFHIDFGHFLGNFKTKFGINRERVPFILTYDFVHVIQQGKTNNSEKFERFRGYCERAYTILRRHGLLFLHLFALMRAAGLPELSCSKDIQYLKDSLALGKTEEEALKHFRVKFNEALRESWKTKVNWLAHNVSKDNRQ
T1 sequence (P27986 whole entry partner): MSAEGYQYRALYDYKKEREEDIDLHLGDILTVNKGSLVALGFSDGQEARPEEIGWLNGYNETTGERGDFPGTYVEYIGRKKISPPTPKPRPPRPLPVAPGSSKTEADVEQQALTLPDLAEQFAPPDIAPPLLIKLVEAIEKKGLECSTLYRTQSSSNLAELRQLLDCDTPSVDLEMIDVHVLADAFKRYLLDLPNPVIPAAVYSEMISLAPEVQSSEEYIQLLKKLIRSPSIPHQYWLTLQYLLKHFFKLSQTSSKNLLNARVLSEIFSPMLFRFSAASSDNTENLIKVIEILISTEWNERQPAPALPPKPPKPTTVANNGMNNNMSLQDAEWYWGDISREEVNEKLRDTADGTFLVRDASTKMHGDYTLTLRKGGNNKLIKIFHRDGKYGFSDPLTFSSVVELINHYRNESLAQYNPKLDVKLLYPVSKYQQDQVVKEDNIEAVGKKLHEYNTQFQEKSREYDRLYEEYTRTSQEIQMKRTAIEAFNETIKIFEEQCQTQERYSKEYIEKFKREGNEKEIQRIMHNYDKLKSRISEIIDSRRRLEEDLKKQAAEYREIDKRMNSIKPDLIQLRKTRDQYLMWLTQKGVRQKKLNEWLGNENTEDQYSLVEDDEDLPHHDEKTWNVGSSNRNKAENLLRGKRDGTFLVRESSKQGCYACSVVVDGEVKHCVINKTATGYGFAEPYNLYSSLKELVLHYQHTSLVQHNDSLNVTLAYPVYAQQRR
Description: (§1) The lipid kinase reaction was carried out in a suitable substrate and under ATP conditions, then the activity of the kinase was detected by ADP-Glo™ kit in two steps. Step 1: the kinase reaction was terminated, in which the residual ATP was completely removed and only ADP was retained; step 2: kinase detection reagent was added to convert ADP to ATP, accompanied by fluorescein/luciferase reaction. Finally, the fluorescence value output was converted into kinase activity.
(§2) Experimental Materials and Equipment:
(§3) 2) Kit: ADP-Glo™ lipid kinase and PIP2:3PS kit (Promega #V1792)
The reagent kit contains: 1 mM PIP2:3PS, 10× lipid dilution buffer, 1 M magnesium chloride, 10 mM ATP, 10 mM ADP, ADP-Glo reagent, detection buffer and detection substrate.
3) Reaction plate: OptiPlate-384, white and transparent (PerkinElmer #6007299)
1) 10× reaction buffer: 500 mM HEPES, pH 7.5, 500 mM NaCl, […]; BSA: 10% stock solution, self-made
2) Final test system conditions: 1× reaction system: 50 mM of HEPES, 50 mM of NaCl, 3 mM of MgCl2, 0.01% BSA (freshly prepared on the day of experiment), 1% DMSO (v/v)+/−compound
3) Reaction system: 3 μL of mixture of enzyme and substrate (1:1)+2 μL of ATP/MgCl2 mixture+5 μL of ADP-Glo reagent+10 μL of detection reagent.
The specific experimental operations were as follows: […]
(§4) (16) Fluorescence values were measured on the Envision instrument.

[1] = test system: human breast cancer T47D (PIK3CA H1047R mutation); experiment: In vivo pharmacodynamic study, T47D nude mouse subcutaneous xenograft tumor model; parameters: species or system BALB/c nude mice
Description: The phenotype of human T47D breast cancer cells is HR+/HER2−, and it carries PIK3CA H1047R mutation. This experiment evaluated the efficacy of the crystal form A of the compound represented by formula (I) in a human breast cancer xenograft tumor model.
Cell culture: Human breast cancer T47D cells were cultured in vitro in a single layer, the culture condition was RPMI-1640 medium with 0.2 U/mL bovine insulin and 10% fetal bovine serum, and the cells were incubated in 5% CO2 at 37° C. Digestion and passage treatment with trypsin-EDTA was carried out twice a week. When the cell saturation was 80%-90% and the number reached the requirement, the cells were collected, counted and inoculated.
Animals: BALB/c nude mice, female, 6-8 weeks old, weighing 18-20 g. A total of 75 animals were required, and provided by Shanghai Bikai experimental animal Co., Ltd or other qualified suppliers.
Tumor inoculation: Estrogen tablets (0.18 mg/tablet) were subcutaneously inoculated on the left back of each mouse. Three days later, 0.2 mL (10×10^6 cells) of T47D cells (with matrigel in a volume ratio of 1:1) were subcutaneously inoculated on the right back of each mouse, group administration was started when the average tumor volume reached 150 mm^3-200 mm^3.
Tumor-bearing mice in each administration group had good tolerance to the tested compounds.

MDA-MB-468 = experiment: Akt phosphorylation inhibition in MDA-MB-468 cells (high expression of PI3Kβ); format: cell-based; conditions: MDA-MB-468 cell line with high expression of PI3Kβ
Mutant PI3Kα (E545K) = Mutant PI3Kα (E545K) (Homo sapiens, UniProt P42336, E545K); experiment: In vitro enzymatic activity test, mutant PI3Kα (E545K); format: biochemical
Sequence of Mutant PI3Kα (E545K) (P42336 whole entry E545K): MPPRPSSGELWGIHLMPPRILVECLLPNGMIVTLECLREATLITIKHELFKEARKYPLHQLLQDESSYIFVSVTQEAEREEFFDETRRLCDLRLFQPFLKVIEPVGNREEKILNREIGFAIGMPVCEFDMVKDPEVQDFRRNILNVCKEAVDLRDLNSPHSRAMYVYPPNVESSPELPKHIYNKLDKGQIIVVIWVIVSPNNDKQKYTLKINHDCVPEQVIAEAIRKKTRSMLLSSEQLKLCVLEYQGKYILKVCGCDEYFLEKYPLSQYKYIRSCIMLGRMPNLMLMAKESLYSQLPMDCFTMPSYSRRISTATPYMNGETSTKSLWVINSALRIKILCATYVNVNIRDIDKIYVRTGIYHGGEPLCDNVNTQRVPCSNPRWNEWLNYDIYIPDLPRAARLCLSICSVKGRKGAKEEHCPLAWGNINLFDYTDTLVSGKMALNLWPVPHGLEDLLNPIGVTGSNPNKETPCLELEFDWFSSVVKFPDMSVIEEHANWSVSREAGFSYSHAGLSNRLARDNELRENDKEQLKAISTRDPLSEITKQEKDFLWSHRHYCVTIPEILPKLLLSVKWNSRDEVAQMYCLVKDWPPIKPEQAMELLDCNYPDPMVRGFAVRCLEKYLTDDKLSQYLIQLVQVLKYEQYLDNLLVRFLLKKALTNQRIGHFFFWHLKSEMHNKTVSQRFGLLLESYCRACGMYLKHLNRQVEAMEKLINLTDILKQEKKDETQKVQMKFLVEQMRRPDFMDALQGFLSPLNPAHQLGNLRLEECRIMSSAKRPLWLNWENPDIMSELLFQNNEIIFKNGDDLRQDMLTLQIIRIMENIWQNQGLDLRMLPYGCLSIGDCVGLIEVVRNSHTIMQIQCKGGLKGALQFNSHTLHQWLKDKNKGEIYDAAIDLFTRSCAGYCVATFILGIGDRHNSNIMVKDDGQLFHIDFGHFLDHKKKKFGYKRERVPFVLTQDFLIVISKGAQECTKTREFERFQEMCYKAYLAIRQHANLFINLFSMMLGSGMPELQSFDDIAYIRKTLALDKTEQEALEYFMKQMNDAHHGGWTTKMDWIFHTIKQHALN
Sequence of Mutant PI3Kα (E545K) (P27986 whole entry partner): as the sequence (P27986 whole entry partner) above
Source text: The crystal form A of the compound represented by formula (I) has a strong inhibitory effect on both wild-type and mutant PI3Kα kinases. […] The crystal form A of the compound represented by formula (I) has excellent selectivity to the other three subtypes of PI3K, and its inhibitory activity against PI3Kα is 149/7.44/6.61 times higher than that of PI3Kβ/δ/γ, respectively. The specific experimental method was the same as experimental embodiment 8. […] The specific experimental method was the same as experimental embodiment 9.
as §1, §2, §3
The reagent kit contains: 1 mM PIP2:3PS, 10× lipid dilution buffer, 1 M magnesium chloride, 10 mM ATP, 10 mM ADP, ADP-Glo reagent, detection buffer and detection substrate. […]
as §4

[2] = 10 mg/kg, oral once a day for 42 days
[3] = 10 mg/kg, oral once a day for 42 days, listed as crystal form A of the compound represented by formula (I)
[4] = 20 mg/kg, oral once a day for 42 days
[5] = 20 mg/kg, oral once a day for 42 days, listed as crystal form A of the compound represented by formula (I)
[6] = 40 mg/kg, oral once a day for 42 days
[7] = 40 mg/kg, oral once a day for 42 days, listed as crystal form A of the compound represented by formula (I)

With `CNC(=O)[C@H](C)Cn1cnc2ccc(-c3cnc(OC)c(NS(=O)(=O)c4ccc(F)cc4F)c3)cc2c1=O` the “Selectivity PI3Kα over PI3Kγ, Akt phosphorylation inhibitory activity in cells” value (RAW264.7) was greater than 694 times, the “Selectivity PI3Kα/δ (kinase)” value (PI3Kδ) was 7.44 times and the “Anti-tumor effect (in words)” value ([1]; 10 mg/kg group) was “strong anti-tumor effect”. For the same molecule, the T/C % [1, 2] was 50.40%, the TGI % [1, 2] was 67.58% and the T/C % [1, 3] was 50.40%. The TGI % [1, 3] was 67.58%, the “Anti-tumor effect (in words)” value ([1]; 20 mg/kg group) was “strong anti-tumor effect” and the T/C % [1, 4] was 44.70%. For the same molecule, the TGI % [1, 4] was 72.56%, the T/C % [1, 5] was 44.70% and the TGI % [1, 5] was 72.56%. The “Anti-tumor effect (in words)” value ([1]; 40 mg/kg group) was “significant anti-tumor effects”, the T/C % [1, 6] was 37.91% and the TGI % [1, 6] was 84.71%. For the same molecule, the T/C % [1, 7] was 37.91%, the TGI % [1, 7] was 84.71% and the “Dose to play the effect” value ([1]; oral once a day for 42 days) was 10 mg/kg. For the same molecule, the “Selectivity PI3Kα over PI3Kβ, Akt phosphorylation inhibitory activity in cells” value (MDA-MB-468) was 195 times and the IC50 (Mutant PI3Kα (E545K)) was 1.13 nM.
